Laboratory results reported in article PMC6724046 (Viruses, 2019).
Counter-ions that a name gives are not always drawn. Like-named read-outs stand apart in the source and are kept apart here.

Tests used:
CPV [1] = test: 50% antiviral efficacy concentration (EC50) assay, CPE-based; assay type: cell-based, Canine parvovirus; conditions: F81 cells pretreated 1 h, CPV MOI 0.076, 40 h
[2] = 50% cytotoxicity concentration (CC50) assay; assay type: cell-based, Feline; conditions: cat
CPV [3] = test: Immunofluorescence assay (IFA) for VP2 protein in infected F81 cells; assay type: cell-based, Canine parvovirus; conditions: about 30 hpi
[4] = system: CPV variant SD3 (New CPV-2b strain); test: Western blot of VP2 expression, variant SD3; assay type: cell-based, Canine parvovirus; conditions: 10 μM, SD3, 40 hpi, normalized to 0.1% DMSO-treated group
F81 cells [5] = test: Caspase-Glo 3/7 assay in F81 cells with or without CPV infection; assay type: cell-based, Feline; conditions: 10 μM, with or without CPV infection, 4, 8, 12 and 24 hpi
CPV SD6 = test: Absolute quantitative PCR of CPV VP2 gene copies in infected F81 cells; assay type: cell-based, Canine parvovirus; conditions: 10 μM, 1 mL whole cell lysates, 40 hpi
[6] = system: CPV variant SD6 (New CPV-2a strain); test: Western blot of VP2 expression, variant SD6; assay type: cell-based, Canine parvovirus; conditions: 10 μM, SD6, 40 hpi, normalized to 0.1% DMSO-treated group
[7] = system: CPV variant BJ-1 (New CPV-2a strain); test: Western blot of VP2 expression, variant BJ-1; assay type: cell-based, Canine parvovirus; conditions: 10 μM, BJ-1, 40 hpi, normalized to 0.1% DMSO-treated group
[8] = system: CPV SD6 (New CPV-2a strain); test: CPE-based antiviral inhibitor screening assay; assay type: cell-based, Canine parvovirus; conditions: for anti-CPV effect on F81 cells / Percentage CPE inhibition (mean ± s.d.): 10 μM; for anti-CPV effect on F81 cells: CPE-based screening assay; for Percentage CPE inhibition (mean ± s.d.): cells treated with drug 1 hour prior to virus infection, MOI 0.076, 40 h postinfection
CPV enteritis = system: CPV enteritis; set-up: method as in earlier work; conditions: Oseltamivir-treated group; cited from earlier work
F81 cells [9] = test: 50% cytotoxicity concentration (CC50) assay; assay type: cell-based, Feline
CPV [10] = test: Time of addition study (percentage CPE inhibition); assay type: cell-based, Canine parvovirus; conditions: 10 μM; for Percentage CPE inhibition (mean ± s.d.): drug added 1 hour post virus infection, 40 h postinfection
[11] = F81 cells, 40 h incubation, read-out: CC50

Nc1nc(Cl)nc2c1ncn2[C@H]1C[C@H](O)[C@@H](CO)O1 [Cladribine]
EC50 (CPV [1]; Canine parvovirus): 0.32 µM
CC50 at 40 h ([2]; CC50): 40.2 µM

Cc1cc(C(C#N)c2ccc(Cl)cc2)c(Cl)cc1NC(=O)c1cc(I)cc(I)c1O (stereo not drawn) [Closantel]
EC50 (CPV [1]; Canine parvovirus): 7.77 µM
CPV infection by IFA (VP2 staining) (CPV [3]; 5 μM): CPV infection could be inhibited
CPV infection by IFA (VP2 staining) (CPV [3]; 10 μM): Few cells were CPV-positive
CPV infection by IFA (VP2 staining) (CPV [3]; 20 μM): Almost no green signals were detected
CC50 at 40 h [2]: 13.7 µM
relative expression of VP2 [4]: 10.78%
pro- or antiapoptotic effect (Caspase 3/7 activity) (F81 cells [5]): no pro- or antiapoptotic effects
CPV viral DNA copy numbers compared with the 0.1% DMSO-treated group (CPV SD6): 20.83%
relative expression of VP2 [6]: 30.1%
relative expression of VP2 [7]: 14.58%

CCOC(=O)C1=C[C@@H](OC(CC)CC)[C@H](NC(C)=O)[C@@H](N)C1 [Oseltamivir]
anti-CPV effect on F81 cells [8]: no anti-CPV effects
inhibition at 10 µM ([8]; Canine parvovirus, read-out: Percentage CPE inhibition (mean ± s.d.)): 2.13 ± 2.41%
weight versus control group (CPV enteritis): significant increase of weight
white blood cell (WBC) count versus control group (CPV enteritis): no changes

Nc1ccn([C@@H]2O[C@H](CO)[C@@H](O)C2(F)F)c(=O)n1 [Gemcitabine HCl]
EC50 (CPV [1]; Canine parvovirus): 0.68 µM
CC50 (F81 cells [9]; [11]): 142 µM

Nc1nc2[nH]cc(CCc3ccc(C(=O)N[C@@H](CCC(=O)[O-])C(=O)[O-])cc3)c2c(=O)[nH]1.Nc1nc2[nH]cc(CCc3ccc(C(=O)N[C@@H](CCC(=O)[O-])C(=O)[O-])cc3)c2c(=O)[nH]1.O.O.O.O.O.[Na+].[Na+].[Na+].[Na+] [Pemetrexed Disodium Hydrate]
Percentage CPE inhibition (mean ± s.d.) [8]: 26.56 ± 2.12%
Percentage CPE inhibition (mean ± s.d.) (CPV [10]): 30.28 ± 5.74%

Nc1ccn(C[C@@H](CO)OCP(=O)(O)O)c(=O)n1 [Cidofovir]
anti-CPV effect on F81 cells [8]: no anti-CPV effects

O=c1[nH]c(=O)n([C@H]2C[C@H](O)[C@@H](CO)O2)cc1C(F)(F)F [Trifluridine]
EC50 (CPV [1]; Canine parvovirus): 9.35 µM
CC50 at 40 h [2]: > 160 µM

Cc1cc(C(C#N)c2ccc(Cl)cc2)c(Cl)cc1NC(=O)c1cc(I)cc(I)c1[O-].[Na+] (stereo not drawn) [Closantel Sodium]
EC50 (CPV [1]): 6.01 µM
Percentage CPE inhibition (mean ± s.d.) [8]: 69.76 ± 6.06%
CPV infection by IFA (VP2 staining) (CPV [3]; 5 μM): CPV infection could be inhibited
CPV infection by IFA (VP2 staining) (CPV [3]; 10 μM): Few cells were CPV-positive
CPV infection by IFA (VP2 staining) (CPV [3]; 20 μM): Almost no green signals were detected
CC50 (F81 cells [9]): 19.1 µM
relative expression of VP2 [4]: 23.85%
Percentage CPE inhibition (mean ± s.d.) (CPV [10]): 58.14 ± 7.28%
pro- or antiapoptotic effect (Caspase 3/7 activity) (F81 cells [5]): no pro- or antiapoptotic effects
CPV viral DNA copy numbers compared with the 0.1% DMSO-treated group (CPV SD6): 24.04%
relative expression of VP2 [6]: 22.50%
relative expression of VP2 [7]: 12.83%

CN1CCC(=C2c3ccccc3CCc3sccc32)CC1.O=C(O)CC(O)C(=O)O [Pizotifen Malate]
Percentage CPE inhibition (mean ± s.d.) [8]: 29.2 ± 2.72%
Percentage CPE inhibition (mean ± s.d.) (CPV [10]): 26.48 ± 2.91%

CC(=O)Oc1ccccc1C(=O)Nc1ncc([N+](=O)[O-])s1 [Nitazoxanide]
EC50 (CPV [1]; Canine parvovirus): 2.71 µM
CPV infection by IFA (VP2 staining) (CPV [3]; 5 μM): CPV infection could be inhibited
CPV infection by IFA (VP2 staining) (CPV [3]; 10 μM): Few cells were CPV-positive
CPV infection by IFA (VP2 staining) (CPV [3]; 20 μM): Almost no green signals were detected
CC50 at 40 h [2, 11]: 21 µM
anti-CPV activity by time of drug addition (CPV [10]; drug added 3 h postinfection): anti-CPV activity of Nitazoxanide was observed
pro- or antiapoptotic effect (Caspase 3/7 activity) (F81 cells [5]): antiapoptotic effects were observed within 12 h
CPV viral DNA copy numbers compared with the 0.1% DMSO-treated group (CPV SD6): 0.07%

Nc1ccn([C@@H]2O[C@H](CO)[C@@H](O)C2(F)F)c(=O)n1 [Gemcitabine]
EC50 (CPV [1]): 0.62 µM
CC50 (F81 cells [9]; [11]): 40 µM
Percentage CPE inhibition (mean ± s.d.) (CPV [10]): 42.8 ± 6.13%
